Results as given in US20050004068A1, “Modulation of tor” (priority 2001, published 2005).
“And” between values parts separate entries of the source, which are not always exact repeats. Equal values may be shown once. “Also recorded” adds a separate entry of the source. Read-outs that look alike come from different tables or passages of the source.

How the values were obtained:
most protein kinases = conditions: read-out: Km for ATP of most cellular kinases; cited from earlier work
mTOR (HA-mTORwt) [1] = target: T1, mTOR (HA-mTORwt) (Homo sapiens, UniProt P42345); assay: mTOR in vitro kinase activity at varying ATP concentrations (apparent Km for ATP); type: biochemical; conditions: S6K1 T389 phosphorylation, ATP 0.2-3.0 mM
T1 construct: expressed in transfected cells; host or cells: HEK293 (anti-HA immunoprecipitate)
Description: (§1) Briefly, transiently transfected, hemaglutinin-tagged (HA) wild-type mTOR (HA-mTORwt) from HEK293 cells were serum starved for 16 hours before insulin stimulation. The cells were then treated with (or controls without) 100 mM 2-deoxyglucose or subjected to amino acid starvation as described above. Cell extracts were prepared for immunoprecipitations with a monoclonal anti-HA antibody. The immunocomplex was washed once with 1 M NaCl in assay buffer (30 mM MOPS (pH7.5), 5 mM NaF, 20 mM β-glycerol phosphate, 1 mM dithioerythritol, 0.1% Triton X-100 and 10% glycerol) and twice with assay buffer alone. […] Quantitation for Km measurements was carried out using scanning densitometry and ImageQuant software (Molecular Dynamics).
Next, we measured mTOR activity in vitro at ATP concentrations that approached physiological levels of 1-5 mM In mammalian cells (Gribble et al., 2000, J.Biol.Chem. 275, 30046).

[2] = system: S6K1 (T389 phosphorylation / activation; reporter for mTOR function); assay: Insulin-induced S6K1 activation and T389 phosphorylation in HEK293 cells (reporter for mTOR function); type: cell-based, human; conditions: HEK293, 200 nM insulin, 100 mM 2-deoxyglucose or 20 mM rotenone, 30 min
Description: Because mTOR is sensitive to amino acids and regulates ribosome biogenesis (Dennis et al., 1999; Gingras et al., 2001; Schmelzle and Hall, 2000), we tested whether its activity may be sensitive to metabolic inhibitors. We used, insulin-induced S6K1 activation and 4E-BP1 phosphorylation as reporters for mTOR function in the presence of glycolytic or mitochohdrial inhibitors to reduce ATP production.
Briefly, human embryonic kidney cells (HEK293) were seeded and maintained as previously described (Pullen et al., Science 279, 707 (1998)). Confluent cells were serum starved for 20 h and then extracted (controls) or treated with 200 nM insulin in the precence or absence of 100 mM 2-deoxyglucose or 20 mM rotenone for 30 min. Cell extraction, kinase assays and Western blot analysis (used to measure S6K1 levels and T389 phosphorylation) were performed as described (Pullen et al.,1998). Phosphospecific antibodies are commercially available (e.g., New England Biolabs).

[3] = system: 4E-BP1 (S65 phosphorylation; mTOR-mediated site); type: cell-based, human
Description: Transfections were carried out essentially as described by Manteuffel et al., 1997, Mol Cell. Biol. 17, 5426 with the 4EBP-1 construct described therein. The expression and phosphorylation of transiently-transfected HA-4E-BP1 was measured using a polyclonal anti-HA antibody and phosphospecific antibody against S65, respectively, essentially as described above (Pullen et al., 1998). The anti-HA antibody was obtained from a commercial source (Santa Cruz Biotechnology, Inc). The mTOR-mediated phosphorylation site in 4E-BP1 is S65.

[4] = system: HEK293 cells (intracellular ATP); assay: Intracellular ATP levels in HEK293 cells, luciferase-based assay; type: cell-based, human; conditions: for ATP levels as a percentage of the insulin-stimulated control (100%): mock-transfected HEK293, insulin-stimulated, treated as in Example 1 (100 mM 2-deoxyglucose or 20 mM rotenone, 30 min); for ATP levels compared to insulin stimulated control (100%): Example 4
Description: Because mTOR is sensitive to glycolitic inhibitors, we wanted to determine whether mTOR is sensitive to alterations in intracellular ATP concentrations. ATP levels were measured from mock-transfected HEK293 cells (using empty vector) treated as in Example 1, using a luciferase-based assay. Retonone and 2-deoxyglucose treatments were carried out on insulin-stimulated cells.
To generate extracts for ATP assays, cells were washed twice with 10 ml ice cold PBS, drained thoroughly, scraped into 1 ml of buffer (100 mM Tris-HCl and 4 mM EDTA pH 7.75) and transferred into an Eppendorf tube before flash freezing in liquid nitrogen. The frozen cells were boiled for 3 min and then placed on ice for 5 min followed by centrifugation at 13,000 rpm for 5 min at 4° C. ATP levels in the extract were measured in a microtiter plate by a Luciferase-based assay (Roche, ATP Bioluminescence Assay Kit CLS II) using a Microlumat LB96P microtiter plate reader (EG&G Berthold). In an illustrative set of experiments and expressing results as a percentage of the insulin-stimulated control (100%), ATP levels increased slightly in insulin treated cells (94% in unstimulated cells), decreased in 2-deoxyglucose treated cells (40-49%) and rotenone-treated cells (75-83%).
(§2) Rapamycin resistance was conferred by fusing glutathione-S-transferase to the NH2-terminus of S6K1 and truncating the COOH-terminus, creating a construct termed GST-ΔC-S6K1 (Pullen et al.,1 998). For the construction of the GST-ΔC-S6K1 (also known as GST-ΔC104-S6K1) and D3E, K100Q-S6K1-GST plasmids, similar cloning strategies were used. S6K1-GST or GST-ΔC-S6K1 from transiently-transfected, serum-starved HEK293 cells were extracted directly or after insulin stimulation with or without the addition of 20 nM rapamycin or 100 nM wortmannin. Kinase activities, expression levels and T389 phosphorylation were carried out essentially as described above. Expression and activity of S6K1-GST or GST-ΔC-S6K1 were measured after insulin stimulation alone or with increasing amounts of 2-deoxyglucose (20, 40 and 100 mM) essentially as described above. Mock-transfected HEK293 cells were treated using the same conditions and extracted for ATP analysis

Protein Kinase B (PKB) = assay: Insulin-induced HA-PKB activation (S473 phosphorylation, in vitro H2B phosphorylation); type: cell-based, human; conditions: 100 mM 2-deoxyglucose, 20 nM rapamycin or 100 nM wortmannin
Description: (§3) Transiently-transfected, HA-tagged PKB activation was measured in vitro using histone 2B (H2B) as substrate (Franke et al., 1995, Cell 81, 727) after immunoprecipitation from serum-starved cells extracted directly or after insulin stimulation with or without the addition of 100 mM 2-deoxyglucose, 20 nM rapamycin or 100 nM wortmannin. Rapamycin and wortmannin were added to serum-starved cells 30 min prior to insulin-stimulation. HA-PKB expression and S473 phosphorylation were measured essentially as described above. HA-MAPK kinase activity toward using myelin basic protein (MBP) was measured from serum-starved cells extracted directly or after 100 nM TPA stimulation in the presence or absence of 20 nM rapamycin or 100 mM 2-deoxyglucose for 30 min (N. Pullen et al., 1998).

[5] = system: Mitogen-Activated Protein Kinase (MAPK); assay: TPA-induced HA-MAPK activation (MBP phosphorylation); type: cell-based, human; conditions: 100 nM TPA, 100 mM 2-deoxyglucose, 30 min
Description: as §3

mTOR (HA-mTORwt) [6] = target: T1, mTOR (HA-mTORwt); assay: In vitro T389 kinase activity of HA-mTORwt immunoprecipitated from treated HEK293 cells; type: cell-based; conditions: cells treated with 100 mM 2-deoxyglucose; assay with 1 mM ATP, 30 min at 30° C.
Description: as §1

S6K1-GST = assay: Insulin-induced activation of S6K1-GST (rapamycin sensitive) in transfected HEK293 cells; type: cell-based, human; conditions: 20 nM rapamycin, 100 nM wortmannin, or 2-deoxyglucose 20, 40 and 100 mM
Excerpt: as §2

GST-ΔC-S6K1 = assay: Insulin-induced activation of GST-ΔC-S6K1 (rapamycin-resistant allele) in transfected HEK293 cells; type: cell-based, human; conditions: 20 nM rapamycin, 100 nM wortmannin, or 2-deoxyglucose 20, 40 and 100 mM
Excerpt: as §2

[7] = system: HEK293 cells (amino acid levels); assay: Levels of individual amino acids in extracts of insulin-stimulated HEK293 cells; type: cell-based, human; conditions: 100 mM 2-deoxyglucose
Description: Levels of individual amino acids were measured in extracts prepared from insulin-stimulated HEK293 cells in the presence or absence of amino acids or with 100 mM 2-deoxyglucose treatment and expressed as a percentage of the insulin-stimulated control in the presence of amino acids. Briefly, confluent cultures of HEK293 cells were treated as described above, washed with PBS and drained thoroughly. The cells were then scraped into […] water and sonicated with four 10 sec pulses. Cell debris was removed by centrifugation and sulfosalicylic acid was added to the supernatant to a final concentration of 2%. The samples were then placed on ice for 30 min followed by centrifugation to remove precipitated proteins. The extracts were then analyzed for amino acid content with a Biochrom 20 plus amino acid analyzer (Amersham-Pharmacia Biotech).

aminoacylated tRNA = assay: tRNA aminoacylation in HEK293 cells (acid/urea gel, Northern blot); type: cell-based, human; conditions: HEK293, insulin stimulation with 2-deoxyglucose
Description: Briefly, total RNA was isolated from serum-starved HEK293 cells directly or after insulin stimulation with or without 2-deoxyglucose or amino acid starvation. As a control marker, tRNA was […] by mild alkaline hydrolysis in 0.1 M Tris-HCl (pH 8.0) at 75° C. for 5 min. After resolution on an acid/urea gel (Enriquez et al., in Methods Enzymol., Acad. Press, San Diego, vol. 264, pp. 183.), tRNA was visualized with ethidium bromide staining. Expression levels and phosphorylation state of endogenous S6K1 and 4E-BP1 were also measured from serum-starved cells, stimulated with insulin in the presence or absence of amino acids in the media essentially as described in Example 1.
To further test this finding, selected tRNAs were examined by Northern blot analysis of the tRNA resolved by acid/urea gel electrophoresis as described above. The individual tRNA species were probed after electrotransfer to nylon membrane, with radiolabelled oligonucleotides specific for tRNALeu and tRNAHis, namely: tRNALeu 5′-GCGCCTTAGACCGCTCGGCCACG-3′ (SEQ ID NO:1); tRNAHis 5′-GGTGCCGTGACTCGGATTCGAACCG-3′ (SEQ ID NO:2); and tRNAThr 5′-GCG AGA AAT GM CTC GCG-3′ (SEQ ID NO:3).

[8] = insulin stimulated HEK293 transfected with HA-4E-BP1, Western blot
[9] = summary: S6K1 T389 and 4E-BP1 S65 in insulin-stimulated HEK293

SMILES: Nc1ncnc2c1ncn2[C@@H]1O[C@H](COP(=O)(O)OP(=O)(O)OP(=O)(O)O)[C@@H](O)[C@H]1O [ATP]
- Km (most protein kinases): 10 to 20 µM
- Km (mTOR (HA-mTORwt) [1]): ≥ 1000 µM and 1000 µM

SMILES: C=C(C)[C@H]1Cc2c(ccc3c2O[C@@H]2COc4cc(OC)c(OC)cc4[C@@H]2C3=O)O1 [rotenone]
- inhibition of insulin-induced S6K1 T389 phosphorylation and S6K1 activation (S6 phosphorylation) [2]: inhibitory effect
- inhibition of 4E-BP1 S65 phosphorylation [3, 8]: inhibitory effect
- inhibition of phosphorylation of mTOR targets (summary of Example 1) [3, 9]: able to inhibit phosphorylation of mTOR targets
- ATP levels as a percentage of the insulin-stimulated control (100%) [4]: 75-83%

SMILES: O=C(O)CI [iodoacetic acid]
- inhibition of 4E-BP1 S65 phosphorylation [3]: more efficient than dinitrophenol
- inhibition of phosphorylation of mTOR targets (summary of Example 1) [3]: able to reduce phosphorylation of mTOR targets to background levels

SMILES: CO[C@H]1C[C@@H]2CC[C@@H](C)[C@@](O)(O2)C(=O)C(=O)N2CCCC[C@H]2C(=O)O[C@H]([C@H](C)C[C@@H]2CC[C@@H](O)[C@H](OC)C2)CC(=O)[C@H](C)/C=C(\C)[C@@H](O)[C@@H](OC)C(=O)[C@H](C)C[C@H](C)/C=C/C=C/C=C/1C [rapamycin]
- insulin-induced activation of PKB, as judged by S473 phosphorylation and in vitro phosphorylation of H2B (Protein Kinase B (PKB)): did not inhibit

SMILES: O=CC[C@@H](O)[C@H](O)[C@H](O)CO [2-deoxyglucose]
- inhibition of insulin-induced S6K1 T389 phosphorylation and S6K1 activation (S6 phosphorylation) [2]: reducing phosphorylation/activation to background levels; also recorded: blocked insulin-induced activation of S6K1
- TPA-induced MAPK activation, as judged by MBP phosphorylation [5]: no discernable effect
- effect on kinase activity of mTOR in vitro towards T389 of S6K1 (mTOR (HA-mTORwt) [6]): no effect
- insulin-induced phosphorylation/activation of S6K1-GST (S6K1-GST): reduced insulin-induced activation of S6K1-GST
- insulin-induced phosphorylation/activation of GST-ΔC-S6K1 (GST-ΔC-S6K1): unaffected
- inhibition of 4E-BP1 S65 phosphorylation [3, 8]: inhibit 4EBP-1 S65 phosphorylation to background levels
- inhibition of phosphorylation of mTOR targets (summary of Example 1) [3, 9]: able to reduce phosphorylation of mTOR targets to background levels
- amino acid levels (Ala, Glu, Leu, Ile and Val) as a percentage of the insulin-stimulated control in the presence of amino acids [7]: 100-120%
- insulin-induced activation of PKB, as judged by S473 phosphorylation and in vitro phosphorylation of H2B (Protein Kinase B (PKB)): did not inhibit
- effect on total amounts of aminoacylated tRNA (aminoacylated tRNA): Neither insulin stimulation nor 2-deoxyglucose treatment had an effect
- ATP levels compared to insulin stimulated control (100%) ([4]; 20 nM 2-deoxyglucose (so in the source)): 57-59%
- ATP levels compared to insulin stimulated control (100%) ([4]; 40 nM 2-deoxyglucose (so in the source)): 43-48%
- ATP levels compared to insulin stimulated control (100%) ([4]; 100 nM 2-deoxyglucose (so in the source)): 32-36%
- ATP levels as a percentage of the insulin-stimulated control (100%) [4]: 40-49%
